Measured values: patent US8674118B2, “Compounds and methods for the treatment or prevention of flavivirus infections” (priority 2005, dated 2014)
Where two headings read alike, the source gives them in different places.

Test system: HCV RNA replication (replicon cell lines Huh-7, 5.2 and ET)
Assay: Cell-Based Luciferase Reporter HCV RNA Replication Assay
[1] = Hepatitis C virus, Huh-7, 96 h, Huh-7, 5.2 or ET replicon cells, luciferase counts after 4 days incubation, read-out: IC50
[2] = Huh-7, 5.2 or ET replicon cells, luciferase counts after 4 days incubation, read-out: IC50

| Compound | IC50 [1] [µM] | further results |
| --- | --- | --- |
| C[C@H]1CC[C@H](C(=O)N(c2cc(C3=CCCCC3)sc2C(=O)O)C2CCN(C#N)CC2)CC1 [Compound 102, 3-[(1-cyano-piperidin-4-yl)-(trans-4-methyl-cyclohexanecarbonyl)-amino]-5-cyclohex-1-enyl-thiophene-2-carboxylic acid] | < 5 |  |
| CC1CCC(C(=O)N(c2cc(C3=CCCCC3)sc2C(=O)O)C2CCC(C)(C#N)CC2)CC1 (stereo not drawn) [Compound 99, 3-[(cis-4-cyano-4-methyl-cyclohexyl)-(trans-4-methyl-cyclohexanecarbonyl)-amino]-5-cyclohex-1-enyl-thiophene-2-carboxylic acid] | < 5 |  |
| CC1CCCC(N(c2cc(C3=CCCCC3)sc2C(=O)O)C(=O)[C@H]2CC[C@H](C)CC2)C1 (relative stereo) [Compound 39, 5-cyclohex-1-enyl-3-[(trans-4-methyl-cyclohexanecarbonyl)-(3-methyl-cyclohexyl)-amino]-thiophene-2-carboxylic acid] | < 5 |  |
| C[C@H]1CC[C@H](C(=O)N(c2cc(C3=CCCCC3)sc2C(=O)O)C2CCCCC2)CC1 [Compound 11, 5-Cyclohex-1-enyl-3-[cyclohexyl-(trans-4-methyl-cyclohexanecarbonyl)-amino]-thiophene-2-carboxylic acid] | < 5 |  |
| CC1CCC(C(=O)N(c2cc(C3=CCCCC3)sc2C(=O)O)C2CCC(n3ccnn3)CC2)CC1 (stereo not drawn) [Compound 105, 5-cyclohex-1-enyl-3-[(trans-4-methyl-cyclohexanecarbonyl)-(trans-4-[1,2,3]triazol-1-cyclohexyl)-amino]-thiophene-2-carboxylic acid] |  | IC50 [2]: < 5 µM |
| COCC1CCC(N(C(=O)C2CCC(C)CC2)c2cc(C3=CCCCC3)sc2C(=O)O)CC1 (mixture of isomers) [Compound 126, 5-cyclohex-1-enyl-3-[(4-cis/trans-methoxymethyl-cyclohexyl)-(4-trans-methyl-cyclohexanecarbonyl)-amino]-thiophene-2-carboxylic acid] | < 5 |  |
| CSCO[C@H]1CC[C@H](N(c2cc(C3=CCCCC3)sc2C(=O)O)C(=O)[C@H]2CC[C@H](C)CC2)CC1 [Compound 142, 5-cyclohex-1-enyl-3-[(trans-4-methyl-cyclohexanecarbonyl)-(trans-4-methylsulfanylmethoxy-cyclohexyl)-amino]-thiophene-2-carboxylic acid] | < 5 |  |
| CC1(C)CCC(c2cc(N(C(=O)[C@H]3CC[C@H](C)CC3)[C@H]3CC[C@H](n4ccnn4)CC3)c(C(=O)O)s2)CC1 [Compound 135, 5-(4,4-dimethyl-cyclohexyl)-3-[(trans-4-methyl-cyclohexanecarbonyl)-(trans-4-[1,2,3]triazol-1-yl-cyclohexyl)-amino]-thiophene-2-carboxylic acid] | < 5 |  |
| CCON=C1CCC(N(c2cc(C3=CCCCC3)sc2C(=O)O)C(=O)[C@H]2CC[C@H](C)CC2)CC1 (relative stereo) [Compound 54, 5-cyclohex-1-enyl-3-[(4-ethoxyimino-cyclohexyl)-(trans-4-methyl-cyclohexanecarbonyl)-amino]-thiophene-2-carboxylic acid] |  | IC50 (Hepatitis C virus, Huh-7, 96 h): < 5 µM |
| CC1CCC(C(=O)N(c2cc(C3=CCCCC3)sc2C(=O)O)C2CCC3(CC2)CNC(=O)C3)CC1 (stereo not drawn) [Compound 81, 5-cyclohex-1-enyl-3-[(trans-4-methyl-cyclohexanecarbonyl)-trans-(3-oxo-2-aza-spiro[4.5]dec-8-yl)-amino]-thiophene-2-carboxylic acid] |  | IC50 [2]: < 5 µM |
| C[C@H]1CC[C@H](C(=O)N(c2cc(C3=CCCCC3)sc2C(=O)O)C2CCN(c3cncnc3)CC2)CC1 [Compound 96, 5-cyclohex-1-enyl-3-[(trans-4-methyl-cyclohexanecarbonyl)-(1-pyrimidin-5-yl-piperidin-4-yl)-amino]-thiophene-2-carboxylic acid] | < 5 |  |
| C[C@H]1CC[C@H](C(=O)N(c2cc([C@H]3CC[C@@H](C)CC3)sc2C(=O)O)[C@H]2CC[C@H](O)CC2)CC1 [Compound 78, 3-[(trans-4-hydroxy-cyclohexyl)-(trans-4-methyl-cyclohexanecarbonyl)-amino]-5-(cis-4-methyl-cyclohexyl)-thiophene-2-carboxylic acid] | < 5 |  |
| CCN1CC2(CCC(N(C(=O)C3CCC(C)CC3)c3cc(C4=CCCCC4)sc3C(=O)O)CC2)CC1=O (stereo not drawn) [Compound 129, 5-cyclohex-1-enyl-3-[trans(2-ethyl-33-oxo-2-aza-spiro[4.5]dec-8-yl)-(trans-4-methylcyclohexanecarbonyl)-amino]-thiophene-2-carboxylic acid] | < 5 |  |
| CC(C)C(=O)N[C@H]1CC[C@H](N(c2cc(C3=CCCCC3)sc2C(=O)O)C(=O)[C@H]2CC[C@H](C)CC2)CC1 [Compound 134, 5-cyclohex-1-enyl-3-[(trans-4-isobutyrylamino-cyclohexyl)-(trans-4-methyl-cyclohexanecarbonyl)-amino]-thiophene-2-carboxylic acid] | < 5 |  |
| CCO/N=C1/CC=C(c2cc(N(C(=O)C3CCC(C)CC3)C3CCC(O)CC3)c(C(=O)O)s2)CC1 (stereo not drawn) [Compound 27, 5-{4-ethoxyimino-cyclohex-1-enyl}-3-[(4-trans-hydroxy-cyclohexyl)-(4-trans-methyl-cyclohexanecarbonyl)-amino]-thiophene-2-carboxylic acid] | < 5 |  |
| CC1CCC(C(=O)N(c2cc(C3=CCC(O)CC3)sc2C(=O)O)C2CCC(O)CC2)CC1 (stereo not drawn) [Compound 34, RS-5-(4-hydroxy-cyclohex-1-enyl)-3-[(4-trans-hydroxy-cyclohexyl)-(4-trans-methyl-cyclohexanecarbonyl)-amino]-thiophene-2-carboxylic acid] | < 5 |  |
| COCOC1CCC(N(C(=O)C2CCC(C)CC2)c2cc(C3CCC(C)(C)CC3)sc2C(=O)O)CC1 (stereo not drawn) [Compound 116, 5-(4,4-dimethyl-cyclohexyl)-3-[(4-trans-methoxymethoxy-cyclohexyl)-(4-trans-methyl-cyclohexanecarbonyl)-amino]-thiophene-2-carboxylic acid] | < 5 |  |
| C[C@H]1CC[C@H](C(=O)N(c2cc(C3=CCCCC3)sc2C(=O)O)C2CC[S+]([O-])CC2)CC1 (relative stereo) [Compound 69, 5-cyclohex-1-enyl-3-[(trans-4-methyl-cyclohexanecarbonyl)-(1-oxo-hexahydro-1lambda*4*-thiopyran-4-yl)-amino]-thiophene-2-carboxylic acid] | < 5 |  |
| CC1CC=C(c2cc(N(C(=O)C3CCC(C)CC3)C3CCCCC3)c(C(=O)O)s2)CC1 (stereo not drawn) [Compound 47, RS-3-[cyclohexyl-(4-trans-methyl-cyclohexanecarbonyl)-amino]-5-(4-methyl-cyclohex-1-enyl)-thiophene-2-carboxylic acid] | < 5 |  |
| CO[C@H]1CC[C@H](N(c2cc(C3=CCC(C(F)(F)F)CC3)sc2C(=O)O)C(=O)[C@H]2CC[C@H](C)CC2)CC1 (relative stereo) [Compound 124, 3-[(trans-4-methoxy-cyclohexyl)-(trans-4-methyl-cyclohexanecarbonyl)-amino]-5-(4-trifluoromethyl-cyclohex-1-enyl)-thiophene-2-carboxylic acid] | < 5 |  |
| COCC(COC)N(c1cc(C2=CCCCC2)sc1C(=O)O)C(=O)[C@H]1CC[C@H](C)CC1 [Compound 111, 5-cyclohex-1-enyl-3-[(2-methoxy-1-methoxymethyl-ethyl)-(trans-4-methyl-cyclohexanecarbonyl)-amino]-thiophene-2-carboxylic acid] | < 5 |  |
| CC1(C)CCC(c2cc(N(C(=O)[C@H]3CC[C@H](C)CC3)C3COCOC3)c(C(=O)O)s2)CC1 [Compound 97, 5-(4,4-Dimethyl-cyclohexyl)-3-[[1,3]dioxan-5-yl-(trans-4-methyl-cyclohexanecarbonyl)-amino]-thiophene-2-carboxylic acid] | < 5 |  |
| CN1C(=O)N(C)C2(CCC(N(c3cc(C4CCC(C)(C)CC4)sc3C(=O)O)C(=O)[C@H]3CC[C@H](C)CC3)CC2)C1=O (relative stereo) [Compound 79, 5-(4,4-dimethyl-cyclohexyl)-3-[(1,3-dimethyl-2,4-dioxo-1,3-diaza-spiro[4.5]dec-8-yl)-(trans-4-methyl-cyclohexanecarbonyl)-amino]-thiophene-2-carboxylic acid] | < 5 |  |
| CC1(C)CCC(c2cc(N(C(=O)[C@H]3CC[C@H](C)CC3)[C@H]3CC[C@H](F)CC3)c(C(=O)O)s2)CC1 [Compound 83, 5-(4,4-dimethyl-cyclohexyl)-3-[(trans-4-fluoro-cyclohexyl)-(trans-4-methyl-cyclohexanecarbonyl)-amino]-thiophene-2-carboxylic acid] | < 5 |  |
| CC1CCC(C(=O)N(c2cc(C3=CCCCC3)sc2C(=O)O)C2CCC3(CC2)CN(C)C(=O)N3C)CC1 (stereo not drawn) [Compound 73, 5-cyclohex-1-enyl-3-[cis(1,3-dimethyl-2-oxo-1,3-diaza-spiro[4.5]dec-8-yl)-(trans-4-methyl-cyclohexanecarbonyl)-amino]-thiophene-2-carboxylic acid] | < 5 |  |
| C[C@H]1CC[C@H](C(=O)N(c2cc(C3CCCCCC3)sc2C(=O)O)[C@H]2CC[C@H](O)CC2)CC1 [Compound 6, 5-Cycloheptyl-3-[(trans-4-hydroxy-cyclohexyl)-(trans-4-methyl-cyclohexanecarbonyl)-amino]-thiophene-2-carboxylic acid] | < 5 |  |
| CC1(C)CCC(N(c2cc(C3=CCCCC3)sc2C(=O)O)C(=O)[C@H]2CC[C@H](C)CC2)CC1 [Compound 38, 5-cyclohex-1-enyl-3-[(4,4-dimethyl-cyclohexyl)-(trans-4-methyl-cyclohexanecarbonyl)-amino]-thiophene-2-carboxylic acid] | < 5 |  |
| CN1C(=O)N(C)C2(CCC(N(c3cc(C4=CCCCC4)sc3C(=O)O)C(=O)[C@H]3CC[C@H](C)CC3)CC2)C1=O (relative stereo) [Compound 32, 5-cyclohex-1-enyl-3-[(1,3-dimethyl-2,4-dioxo-1,3-diaza-spiro[4.5]dec-8-yl)-(trans-4-methyl-cyclohexanecarbonyl)-amino]-thiophene-2-carboxylic acid] | < 5 |  |
